Laboratory results reported in PubChem BioAssay AID248 (DTP/NCI, 2004).
Several values for one entry are separate records, joined by “and”; a condition that tells them apart may be missing. Equal values may be shown once. Toxic doses and inconclusive results are not listed. Rule as the data show it: active = T/C of 150% or more; inactive = T/C below 125%.

Tested on: L1210 leukemia ip in BDF1 mice, survival T/C
Experiment: NCI In Vivo Anticancer Drug Screen. Data for tumor model L1210 Leukemia (intraperitoneal) in B6D2F1 (BDF1) mice
Conditions: endpoint: mean survival time, higher = longer survival
How it was run: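 Read-out is survival time, reported as the treated-group measurement over the vehicle-control measurement.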

[1] = dose: 100.0 mg/kg/injection, schedule: Q04DX003 (ip), vehicle: saline with Tween-80
[2] = dose: 200.0 mg/kg/injection, schedule: Q04DX003 (ip), vehicle: saline with Tween-80
[3] = dose: 400.0 mg/kg/injection, schedule: Q04DX003 (ip), vehicle: saline with Tween-80
[4] = dose: 100.0 mg/kg/injection, schedule: Q01DX009 (ip), vehicle: Klucel (hydroxypropylcellulose) (HPC)
[5] = dose: 100.0 mg/kg/injection, schedule: Q04DX003 (ip), vehicle: Klucel (hydroxypropylcellulose) (HPC)
[6] = dose: 200.0 mg/kg/injection, schedule: Q01DX009 (ip), vehicle: Klucel (hydroxypropylcellulose) (HPC)
[7] = dose: 200.0 mg/kg/injection, schedule: Q04DX003 (ip), vehicle: Klucel (hydroxypropylcellulose) (HPC)
[8] = dose: 400.0 mg/kg/injection, schedule: Q01DX009 (ip), vehicle: Klucel (hydroxypropylcellulose) (HPC)
[9] = dose: 400.0 mg/kg/injection, schedule: Q04DX003 (ip), vehicle: Klucel (hydroxypropylcellulose) (HPC)
[10] = dose: 100.0 mg/kg/injection, schedule: Q01DX001 (ip), vehicle: saline
[11] = dose: 200.0 mg/kg/injection, schedule: Q01DX001 (ip), vehicle: saline
[12] = dose: 400.0 mg/kg/injection, schedule: Q01DX001 (ip), vehicle: saline

Measured: T/C

NC(N)=NCCCC(N)C(=O)NCCCCCCNC(=O)CCC(=O)NCCCCCCNC(=O)C(N)CCCN=C(N)N (stereo not given)
inactive: dose: 62.5 mg/kg/injection, schedule: Q01DX010 (ip), vehicle: saline 94 % of control | dose: 125.0 mg/kg/injection, schedule: Q01DX010 (ip), vehicle: saline 98 % of control | dose: 250.0 mg/kg/injection, schedule: Q01DX010 (ip), vehicle: saline 100 % of control | dose: 500.0 mg/kg/injection, schedule: Q01DX010 (ip), vehicle: saline 113 % of control

CNC(=S)N(C)C
inactive: dose: 100.0 mg/kg/injection, schedule: Q04DX003 (ip), vehicle: saline sonified 114 % of control | dose: 200.0 mg/kg/injection, schedule: Q04DX003 (ip), vehicle: saline sonified 103 % of control | dose: 400.0 mg/kg/injection, schedule: Q04DX003 (ip), vehicle: saline sonified 103 % of control

CCCCSc1cc(NS(=O)(=O)c2ccccc2)ccc1NS(=O)(=O)c1ccccc1
inactive: [1] 97 % of control | [2] 93 % of control | [3] 95 % of control

CC1C[N+](C)(C)CC(C)C1=O (stereo not given)
inactive: dose: 12.5 mg/kg/injection, schedule: Q04DX002 (ip), vehicle: saline with Tween-80 96 % of control | dose: 25.0 mg/kg/injection, schedule: Q04DX002 (ip), vehicle: saline with Tween-80 107 % of control | dose: 50.0 mg/kg/injection, schedule: Q04DX002 (ip), vehicle: saline with Tween-80 93 % of control

CCc1ccc(NC(=O)Nc2ccccc2C)cc1
inactive: [4] 92 % of control | [5] 93 % of control | [6] 94 % of control | [7] 93 % of control | [8] 100 % of control | [9] 94 % of control

N#CS.[Tl]
inactive: dose: 9.5 mg/kg/injection, schedule: Q01DX001 (ip), vehicle: carboxymethylcellulose (CMC) 92 % of control | dose: 19.0 mg/kg/injection, schedule: Q01DX001 (ip), vehicle: carboxymethylcellulose (CMC) 103 % of control | dose: 38.0 mg/kg/injection, schedule: Q01DX001 (ip), vehicle: carboxymethylcellulose (CMC) 105 % of control

c1cc2cc(c1)CCc1cccc(c1)CC2
inactive: [10] 100 % of control | [11] 106 % of control | [12] 94 % of control

CC(=O)OCC1OC(Oc2c(Br)cc(Br)cc2Br)C(OC(C)=O)C(OC(C)=O)C1OC(C)=O (stereo not given)
inactive: [1] 96 % of control | [2] 101 % of control | [3] 95 % of control

CC1CN=C(c2ccc(NC(=O)c3ccc(C(=O)Nc4ccc(C5=NCC(C)CN5)cc4)nc3)cc2)NC1 (stereo not given)
inactive: dose: 2.0 mg/kg/injection, schedule: Q01DX001 (ip), vehicle: water 97 % of control and 101 % of control | dose: 4.0 mg/kg/injection, schedule: Q01DX001 (ip), vehicle: water 101 % of control and 106 % of control | dose: 6.0 mg/kg/injection, schedule: Q01DX001 (ip), vehicle: water 106 % of control and 115 % of control
active: dose: 4.0 mg/kg/injection, schedule: Q01DX015 (ip), vehicle: water 250 % of control and 288 % of control

C/C=C/C=C/C=N/N=C(N)N
inactive: dose: 15.0 mg/kg/injection, schedule: Q01DX Z (ip), vehicle: carboxymethylcellulose (CMC) 97 % of control | dose: 30.0 mg/kg/injection, schedule: Q01DX Z (oral), vehicle: carboxymethylcellulose (CMC) 109 % of control | dose: 60.0 mg/kg/injection, schedule: Q01DX Z (oral), vehicle: carboxymethylcellulose (CMC) 103 % of control | dose: 120.0 mg/kg/injection, schedule: Q01DX Z (oral), vehicle: carboxymethylcellulose (CMC) 103 % of control and 112 % of control | dose: 240.0 mg/kg/injection, schedule: Q01DX Z (oral), vehicle: carboxymethylcellulose (CMC) 102 % of control and 107 % of control

O=c1c(O)c(-c2ccc(Cl)cc2)oc2cc(O)ccc12
inactive: dose: 100.0 mg/kg/injection, schedule: Q01DX001 (ip), vehicle: other 101 % of control | dose: 200.0 mg/kg/injection, schedule: Q01DX001 (ip), vehicle: other 101 % of control | dose: 400.0 mg/kg/injection, schedule: Q01DX001 (ip), vehicle: other 93 % of control

[I][Ga]([I])[I]
inactive: [10] 101 % of control | [11] 108 % of control | [12] 111 % of control

CCCCCCCCCCCCCCCC[N+]1(C)CCSCC1
inactive: dose: 0.78 mg/kg/injection, schedule: Q01DX009 (ip), vehicle: saline 104 % of control | dose: 1.56 mg/kg/injection, schedule: Q01DX009 (ip), vehicle: saline 111 % of control | dose: 3.13 mg/kg/injection, schedule: Q01DX009 (ip), vehicle: saline 114 % of control | dose: 6.25 mg/kg/injection, schedule: Q01DX009 (ip), vehicle: saline 104 % of control

CCCN(CCC)CCSC(=S)NCCOC
inactive: dose: 4.0 mg/kg/injection, schedule: Q01DX001 (sc), vehicle: olive oil, sesame oil, peanut oil 110 % of control | dose: 8.0 mg/kg/injection, schedule: Q01DX001 (sc), vehicle: olive oil, sesame oil, peanut oil 112 % of control | dose: 16.0 mg/kg/injection, schedule: Q01DX001 (sc), vehicle: olive oil, sesame oil, peanut oil 116 % of control | dose: 32.0 mg/kg/injection, schedule: Q01DX001 (sc), vehicle: olive oil, sesame oil, peanut oil 118 % of control | dose: 50.0 mg/kg/injection, schedule: Q01DX001 (ip), vehicle: olive oil, sesame oil, peanut oil 96 % of control | dose: 50.0 mg/kg/injection, schedule: Q01DX009 (ip), vehicle: acetone 93 % of control | dose: 100.0 mg/kg/injection, schedule: Q01DX001 (ip), vehicle: acetone 110 % of control | dose: 100.0 mg/kg/injection, schedule: Q01DX001 (ip), vehicle: olive oil, sesame oil, peanut oil 92 % of control | dose: 100.0 mg/kg/injection, schedule: Q01DX009 (ip), vehicle: acetone 101 % of control | dose: 200.0 mg/kg/injection, schedule: Q01DX001 (ip), vehicle: acetone 104 % of control | dose: 200.0 mg/kg/injection, schedule: Q01DX001 (ip), vehicle: olive oil, sesame oil, peanut oil 103 % of control | dose: 400.0 mg/kg/injection, schedule: Q01DX001 (ip), vehicle: olive oil, sesame oil, peanut oil 88 % of control

CC1(C)C/C(=C\c2ccc(Br)cc2)C(=O)c2ccccc21
inactive: [4] 98 % of control | [5] 106 % of control | [6] 95 % of control | [7] 106 % of control | [8] 101 % of control | [9] 104 % of control

C=C(Br)CNC(=O)CCCl
inactive: dose: 6.25 mg/kg/injection, schedule: Q01DX009 (ip), vehicle: other 109 % of control | dose: 12.5 mg/kg/injection, schedule: Q01DX009 (ip), vehicle: other 98 % of control | dose: 25.0 mg/kg/injection, schedule: Q01DX009 (ip), vehicle: other 102 % of control

O=C1c2c(O)cccc2C(C2OC(CO)C(O)C(O)C2O)c2cc(CO)cc(O)c21 (stereo not given)
inactive: [10] 98 % of control | [11] 98 % of control | [12] 104 % of control

O=C(c1ccccc1)c1c2ccccc2cc2ccccc12
inactive: dose: 50.0 mg/kg/injection, schedule: Q01DX009 (ip), vehicle: saline with Tween-80 91 % of control | dose: 100.0 mg/kg/injection, schedule: Q01DX009 (ip), vehicle: saline with Tween-80 90 % of control | [1] 89 % of control | [2] 89 % of control | [3] 90 % of control

COc1ccc(/C=C/c2cccc[n+]2C)cc1
inactive: dose: 12.5 mg/kg/injection, schedule: Q01DX009 (ip), vehicle: Klucel (hydroxypropylcellulose) (HPC) 89 % of control | dose: 12.5 mg/kg/injection, schedule: Q04DX003 (ip), vehicle: Klucel (hydroxypropylcellulose) (HPC) 100 % of control | dose: 25.0 mg/kg/injection, schedule: Q01DX009 (ip), vehicle: Klucel (hydroxypropylcellulose) (HPC) 90 % of control | dose: 25.0 mg/kg/injection, schedule: Q04DX003 (ip), vehicle: Klucel (hydroxypropylcellulose) (HPC) 94 % of control | dose: 50.0 mg/kg/injection, schedule: Q04DX003 (ip), vehicle: Klucel (hydroxypropylcellulose) (HPC) 100 % of control

CCn1cc(C(=O)O)c(=O)c2cccc(OC)c21
inactive: dose: 50.0 mg/kg/injection, schedule: Q04DX002 (ip), vehicle: saline 86 % of control | dose: 100.0 mg/kg/injection, schedule: Q04DX002 (ip), vehicle: saline 115 % of control | dose: 200.0 mg/kg/injection, schedule: Q04DX002 (ip), vehicle: saline 100 % of control

CC(=O)COc1cccc2ccccc12
inactive: dose: 100.0 mg/kg/injection, schedule: Q01DX009 (ip), vehicle: gum acacia 100 % of control | dose: 200.0 mg/kg/injection, schedule: Q01DX009 (ip), vehicle: gum acacia 99 % of control | dose: 400.0 mg/kg/injection, schedule: Q01DX009 (ip), vehicle: gum acacia 97 % of control

Cc1cccc(Cl)c1NC(=O)Nc1onc(C)c1C
inactive: [4] 103 % of control | [6] 100 % of control | [8] 92 % of control
